From the NIST ThermoML archive (doi:10.1016/j.tca.2013.10.028)
± gives the expanded uncertainty stated by the source.

Assays:
[1] = an = ratio of the nth substance listed; details: for surface tension liquid-gas: Ring tensiometer; for electrical conductivity / viscosity / mass density: 101 kPa, Liquid; for electrical conductivity: Alternating current cell with electrodes; for viscosity: Capillary tube (Ostwald / Ubbelohde) method; for mass density: Vibrating tube method
[2] = refractive index (Na D-line) (dimensionless); an = ratio of the nth substance listed; details: 101 kPa, Liquid, Standard Abbe refractometry

OCC(O)CO [glycerol] + O=C([O-])[O-].[K+].[K+]
Details	electrical conductivity, [1] [S/m]	mass density, [1] [kg/m3]	refractive index, [2]	surface tension liquid-gas, [1] [mN/m]	viscosity, [1] [mPa·s]
293.15 K, a1 = 4	0.0008 ± 0.0002	1477.9 ± 2	1.4922 ± 0.0021	50.6 ± 2.1	28104 ± 3900
293.15 K, a1 = 5	0.0034 ± 0.0007	1447.2 ± 1.9	1.491 ± 0.0021	64.4 ± 2.2	18018 ± 2400
293.15 K, a1 = 6	0.0052 ± 0.001	1423.6 ± 1.8	1.4897 ± 0.0021	69.5 ± 2.3	5500 ± 690
303.15 K, a1 = 4	0.003 ± 0.0006	1472 ± 2	1.4906 ± 0.0021	46.1 ± 2.1	10100 ± 1300
303.15 K, a1 = 5	0.0082 ± 0.0016	1441.4 ± 1.9	1.4894 ± 0.0021	59.1 ± 2.2	8899 ± 1200
303.15 K, a1 = 6	0.0112 ± 0.0022	1417.8 ± 1.8	1.4882 ± 0.0021	66.8 ± 2.2	3500 ± 420
313.15 K, a1 = 4	0.0069 ± 0.0014	1466.1 ± 1.9	1.4888 ± 0.0021	45.2 ± 2.1	3330 ± 410
313.15 K, a1 = 5	0.0154 ± 0.0031	1435.5 ± 1.9	1.488 ± 0.0021	56.7 ± 2.2	3440 ± 420
313.15 K, a1 = 6	0.0247 ± 0.0049	1411.9 ± 1.8	1.4866 ± 0.0021	65.6 ± 2.2	1710 ± 200
323.15 K, a1 = 4	0.0162 ± 0.0032	1460.2 ± 1.9	1.4862 ± 0.0021	44.4 ± 2.1	1400 ± 160
323.15 K, a1 = 5	0.0371 ± 0.0074	1429.6 ± 1.8	1.4853 ± 0.0021	55.3 ± 2.2	1418 ± 160
323.15 K, a1 = 6	0.0393 ± 0.0079	1405.9 ± 1.8	1.4845 ± 0.0021	64 ± 2.2	767 ± 85
333.15 K, a1 = 4	0.0313 ± 0.0063	1454.1 ± 1.9	1.4857 ± 0.0021	43.4 ± 2.1	663 ± 72
333.15 K, a1 = 5	0.076 ± 0.015	1423.4 ± 1.8	1.4839 ± 0.0021	54.7 ± 2.2	646 ± 71
333.15 K, a1 = 6	0.121 ± 0.024	1399.8 ± 1.8	1.4827 ± 0.0021	63 ± 2.2	378 ± 40
343.15 K, a1 = 4	0.0583 ± 0.012	1448.1 ± 1.9	1.4846 ± 0.0021	42.6 ± 2.1	323 ± 34
343.15 K, a1 = 5	0.139 ± 0.028	1417.5 ± 1.8	1.4818 ± 0.0021	53.7 ± 2.2	323 ± 34
343.15 K, a1 = 6	0.163 ± 0.033	1393.8 ± 1.8	1.4808 ± 0.0021	62.2 ± 2.2	203 ± 21
353.15 K, a1 = 4	0.204 ± 0.041	1442.2 ± 1.9	1.4839 ± 0.0021	41.6 ± 2.1	200 ± 20
353.15 K, a1 = 5	0.313 ± 0.063	1411.4 ± 1.8	1.4783 ± 0.0021	51.3 ± 2.2	178 ± 19
353.15 K, a1 = 6	0.341 ± 0.068	1387.7 ± 1.7	1.4789 ± 0.0021	61.5 ± 2.2	115 ± 12

O=C([O-])[O-].[K+].[K+] [potassium carbonate] + OCCO
Details	electrical conductivity, [1] [S/m]	mass density, [1] [kg/m3]	refractive index, [2]	surface tension liquid-gas, [1] [mN/m]	viscosity, [1] [mPa·s]
293.15 K, a2 = 6	0.22 ± 0.022	1338.8 ± 1.6	1.4598 ± 0.0021	28.4 ± 0.5	227 ± 24
293.15 K, a2 = 7	0.238 ± 0.024	1314 ± 1.5	1.4565 ± 0.0021	28.3 ± 0.5	149 ± 15
293.15 K, a2 = 8	0.231 ± 0.023	1295.5 ± 1.5	1.457 ± 0.0021	27.8 ± 0.49	117 ± 12
303.15 K, a2 = 6	0.34 ± 0.034	1332.1 ± 1.6	1.4576 ± 0.0021	27.8 ± 0.49	120 ± 12
303.15 K, a2 = 7	0.425 ± 0.043	1307.3 ± 1.5	1.4548 ± 0.0021	27.7 ± 0.49	81 ± 8
303.15 K, a2 = 8	0.365 ± 0.036	1288.8 ± 1.5	1.4556 ± 0.0021	27.3 ± 0.48	66 ± 7
313.15 K, a2 = 6	0.51 ± 0.051	1325.3 ± 1.6	1.455 ± 0.0021	27.3 ± 0.48	69 ± 7
313.15 K, a2 = 7	0.537 ± 0.054	1300.6 ± 1.5	1.4525 ± 0.0021	27.2 ± 0.48	49 ± 5
313.15 K, a2 = 8	0.531 ± 0.053	1282.1 ± 1.5	1.4536 ± 0.0021	26.7 ± 0.47	40 ± 4
323.15 K, a2 = 6	0.78 ± 0.078	1318.5 ± 1.6	1.4533 ± 0.0021	26.8 ± 0.47	42 ± 4
323.15 K, a2 = 7	0.801 ± 0.08	1293.8 ± 1.5	1.4507 ± 0.0021	26.7 ± 0.47	31 ± 3
323.15 K, a2 = 8	0.73 ± 0.073	1275.3 ± 1.5	1.4513 ± 0.0021	26.1 ± 0.46	26 ± 3
333.15 K, a2 = 6	1.17 ± 0.12	1311.7 ± 1.5	1.4519 ± 0.0021	26.1 ± 0.46	28 ± 3
333.15 K, a2 = 7	1.18 ± 0.12	1287 ± 1.5	1.449 ± 0.0021	26 ± 0.46	21 ± 2
333.15 K, a2 = 8	1.04 ± 0.1	1268.5 ± 1.4	1.4496 ± 0.0021	25.5 ± 0.45	18 ± 2
343.15 K, a2 = 6	1.51 ± 0.15	1304.9 ± 1.5	1.4485 ± 0.0021	25.5 ± 0.45	20 ± 2
343.15 K, a2 = 7	1.53 ± 0.15	1280.1 ± 1.5	1.4459 ± 0.0021	25.3 ± 0.45	15 ± 2
343.15 K, a2 = 8	1.4 ± 0.14	1261.7 ± 1.4	1.4469 ± 0.0021	24.8 ± 0.44	13 ± 1
